{"source": "patent US20230175022A1", "about": "(priority 2020, published 2023)"}
{"tested_on": "not listed separately", "assay": "Partitioning of divarinic acid and divarin into organic overlays (96 well deepwell plate, HPLC)", "assay_type": "physicochemical", "conditions": "Delft medium+CSM+2% glucose, 48 hours", "protocol": "Several monoester and one diester overlay candidate were compared to IPM for production of divarinic acid and divarin. LSC3-13 precultures were inoculated from YPD streak plates and grown in 300 μL Delft medium+0.79 g/L complete supplement mixture (CSM) (ForMedium, Norfolk, UK)+2% (w/v) glucose in round-bottom square well 96 well deepwell plates for approximately 18 hours overnight at 30° C. with 950 rpm shaking in an Infors plate shaker. 96 well deepwell plate wells containing 300 μL of Delft medium+CSM+2% (w/v) glucose, 60 μL of different overlay solvents, and 0.08% (w/v) butyric acid, were inoculated with 10 μL of preculture and grown for 30° C. with 950 rpm shaking. After 48 hours, the aqueous layer and overlay were sampled on a Bravo automated liquid handling platform (Agilent) and samples from the aqueous and organic overlay phases were subjected to HPLC analysis to measure divarinic acid and divarin production."}
{"compound": "CCCc1cc(O)cc(O)c1", "note": "[divarin, 1,3-dihydroxy-5-propylbenzene]", "partitioning into monoester overlays compared with olivetolic acid and olivetol": "partition less effectively"}
{"compound": "CCCc1cc(O)cc(O)c1C(=O)O", "note": "[divarinic acid, 2,4-dihydroxy-6-propylbenzoic acid]", "partitioning into monoester overlays compared with olivetolic acid and olivetol": "partition less effectively"}
{"tested_on": "not listed separately", "assay": "Partitioning of olivetolic acid between organic overlay and aqueous culture phase (shake flask, HPLC)", "assay_type": "physicochemical", "conditions": "IPM overlay; YP+2% galactose culture, not acidified", "protocol": "(§1) Precultures of LSC3-2 and LSC3-18 were inoculated from YPD streak plates and grown in 30 mL of YP+2% (w/v) glucose in baffled 250 mL shake flasks for approximately 18 hours overnight at 30° C. with 200 rpm shaking. Baffled 250 mL shake flasks containing 30 mL of YP+2% (w/v) galactose, 5 mL of IPM or diethyl sebacate, and 0.04% (w/v) hexanoic acid, were inoculated with 1 mL of preculture and grown for at 30° C. with 200 rpm shaking. After 24 and 48 hours, samples of cell culture broth plus overlay were sampled into microcentrifuge tubes and stored at −20° C. at least overnight. Sample tubes were thawed and aqueous sample and overlay sample were pipetted into plates for HPLC analysis. Overlay samples were diluted 1:1 v/v with methanol in the HPLC plate prior to analysis."}
{"compound": "CCCCCc1cc(O)cc(O)c1C(=O)O", "note": "[OA, olivetolic acid]", "partitioning between overlay and aqueous phase": "partitioned between the IPM and aqueous phases"}
{"tested_on": "not listed separately", "assay": "Partitioning of olivetolic acid between organic overlay and aqueous culture phase (shake flask, HPLC)", "assay_type": "physicochemical", "conditions": "diethyl sebacate overlay; YP+2% galactose culture, not acidified", "protocol": "as §1"}
{"compound": "CCCCCc1cc(O)cc(O)c1C(=O)O", "note": "[OA, olivetolic acid]", "partitioning between overlay and aqueous phase": "entirely partitioned into diethyl sebacate"}
{"tested_on": "S. cerevisiae", "assay": "Growth of S. cerevisiae strains in overlay/underlay candidates (OD600)", "assay_type": "cell-based, Saccharomyces cerevisiae", "conditions": "20% (v/v) overlay/underlay; YP+2% (w/v) galactose", "protocol": "(§2) To test non-toxic organic overlays/underlays, different non-production background and production strains of S. cerevisiae (Table 1) were inoculated from colonies on YPD agar plates and grown for approximately 24 hours in 96 well deepwell plates containing 300 μL YP+2% (w/v) glucose at 30° C. with 950 rpm shaking (3 mm throw) and maintained at 85% humidity. These cultures were then used to inoculate 96 well deepwell plates containing 300 μL YP+2% (w/v) galactose (YP gal) or glucose (YP glu), with or without addition of 0.04% (w/v) hexanoic acid (HA) plus 20% (v/v) (60 μL) of different overlays/underlays or no organic phase, under the same conditions described for precultures. At three different times (specified in plots), biological triplicate cultures were sampled and optical density at 600 nm (0D600) was measured as a proxy for biomass growth on a SpectraMax plate reader, with dilution in water to allow measurements to be within the linear range of instrumental readings. Averaged OD600s across at least three biological replicates of each strain/overlay condition at each sampling time. Multiple sets of measurements were performed on large groups of overlay and underlay candidates in different batches."}
{"compound": "CC(C)(C)OC(=O)CC(=O)OC(C)(C)C", "note": "[di-cert-butyl malonate, Di-tert-butyl malonate]", "toxicity to growth (OD600), with galactose": "appearing toxic or to induce substantial lag"}
{"compound": "CCOC(=O)C(CC)(CC)C(=O)OCC", "note": "[diethyl diethylmalonate]", "toxicity to growth (OD600), with galactose": "substantial lag"}
{"tested_on": "S. cerevisiae", "assay": "Growth of S. cerevisiae strains in overlay/underlay candidates (OD600)", "assay_type": "cell-based, Saccharomyces cerevisiae", "conditions": "20% (v/v) overlay/underlay; YP+2% (w/v) galactose or glucose; 96 well deepwell plates; production and non-production strains", "protocol": "as §2"}
{"compound": "2,2,4-trimethyl-1,3-pentanediol monoisobutyrate [Texanol]", "toxicity to growth (OD600 as proxy for biomass growth)": "inhibitory to growth"}
{"compound": "CCCCCCCCCCO", "note": "[Decanol]", "toxicity to growth (OD600 as proxy for biomass growth)": "toxic to growth"}
{"compound": "CCCCOC(=O)CCCCCCCCC(=O)OCCCC", "note": "[Dibutyl sebacate]", "toxicity to growth (OD600 as proxy for biomass growth)": "completely non-inhibitory to growth"}
{"compound": "CCCCCCCCCCCCCC(=O)OC(C)C", "note": "[IPM, isopropyl myristate]", "toxicity to growth (OD600 as proxy for biomass growth)": "non-toxic"}
{"compound": "CCCCCCCC(=O)OC(C)C", "note": "[Isopropyl octanoate]", "toxicity to growth (OD600 as proxy for biomass growth)": "moderately inhibitory but allowed for some growth"}
{"compound": "CCCCCCCC(=O)OCC(COC(=O)CCCCCCC)OC(=O)CCCCCCC", "note": "[Tricaprylin]", "toxicity to growth (OD600 as proxy for biomass growth)": "fairly toxic"}
{"compound": "CCCCCCCCCCCC(=O)OCCCC", "note": "[butyl laurate]", "toxicity to growth (OD600 as proxy for biomass growth)": "non-toxic"}
{"compound": "CCCCOC(=O)CCCCC(=O)OCCCC", "note": "[dibutyl adipate]", "toxicity to growth (OD600 as proxy for biomass growth)": "no apparent toxicity"}
{"compound": "CCOC(=O)CCCCCCCCC(=O)OCC", "note": "[diethyl sebacate]", "toxicity to growth (OD600 as proxy for biomass growth)": "modest growth by most strains"}
{"compound": "CC(C)OC(=O)CCCCC(=O)OC(C)C", "note": "[diisopropyl adipate]", "toxicity to growth (OD600 as proxy for biomass growth)": "Some growth was observed"}
{"compound": "CCCCCCCCCCCC", "note": "[dodecane]", "toxicity to growth (OD600 as proxy for biomass growth)": "Lack of toxicity"}
{"compound": "CCCCCCCCCC(=O)OCC", "note": "[ethyl decanoate]", "toxicity to growth (OD600 as proxy for biomass growth)": "increasingly non-toxic"}
{"compound": "CCCCCCCCCCCC(=O)OCC", "note": "[ethyl laurate]", "toxicity to growth (OD600 as proxy for biomass growth)": "non-toxic"}
{"compound": "CCCCCCCCCCCCCC(=O)OCC", "note": "[ethyl myristate]", "toxicity to growth (OD600 as proxy for biomass growth)": "non-toxic"}
{"compound": "CCCCCCCCCCCCCCCC", "note": "[hexadecane]", "toxicity to growth (OD600 as proxy for biomass growth)": "Lack of toxicity"}
{"compound": "CCCCCCOC(=O)CCCCC", "note": "[hexyl hexanoate]", "toxicity to growth (OD600 as proxy for biomass growth)": "moderately non-toxic"}
{"compound": "CCCCCCCCCC(=O)OC", "note": "[methyl decanoate]", "toxicity to growth (OD600 as proxy for biomass growth)": "moderately inhibitory to growth but still allowed for growth"}
{"compound": "CCCCCCCCCCCCCC(=O)OC", "note": "[methyl myristate]", "toxicity to growth (OD600 as proxy for biomass growth)": "non-toxic"}
{"compound": "CCCCCCCCOC(C)=O", "note": "[octyl acetate]", "toxicity to growth (OD600 as proxy for biomass growth)": "toxic"}
{"compound": "CCCCCCCC/C=C\\CCCCCCCCO", "note": "[oleyl alcohol]", "toxicity to growth (OD600 as proxy for biomass growth)": "supports robust growth"}
{"compound": "CCCCCCCCCCCCCC", "note": "[tetradecane]", "toxicity to growth (OD600 as proxy for biomass growth)": "Lack of toxicity"}
{"tested_on": "S. cerevisiae", "assay": "Growth of S. cerevisiae strains in overlay/underlay candidates (OD600)", "assay_type": "cell-based, Saccharomyces cerevisiae", "conditions": "20% (v/v) overlay/underlay; YP+2% (w/v) glucose", "protocol": "as §2"}
{"compound": "CCCCCCCC(=O)OCC(COC(=O)CCCCCCC)OC(=O)CCCCCCC", "note": "[Tricaprylin]", "toxicity to growth (OD600), with glucose": "allowed some growth of all strains"}
{"compound": "CC(C)(C)OC(=O)CC(=O)OC(C)(C)C", "note": "[di-cert-butyl malonate, Di-tert-butyl malonate]", "toxicity to growth (OD600), with glucose": "supported growth of all strains"}
{"compound": "CCOC(=O)C(CC)(CC)C(=O)OCC", "note": "[diethyl diethylmalonate]", "toxicity to growth (OD600), with glucose": "modest growth by most strains"}
{"tested_on": "S. cerevisiae", "assay": "Growth of S. cerevisiae strains in overlay/underlay candidates (OD600)", "assay_type": "cell-based, Saccharomyces cerevisiae", "conditions": "1-10% (v/v), particularly 1-2.5% (v/v), in IPM and isopar M"}
{"compound": "CC(C)(C)OC(=O)CC(=O)OC(C)(C)C", "note": "[di-cert-butyl malonate, Di-tert-butyl malonate]", "toxicity to growth of mixture in IPM or isopar M": "much lower toxicity"}
